Source: the CheMixHub viscosity set
Where “and” joins values, the source holds several entries; their conditions need not be identical. Identical values can stand only once. ± gives the uncertainty stated by the source.

Assay: xn = mol fraction of the nth substance listed

C1=C[C@H]2[C@@H](C1)[C@H]1C=C[C@@H]2C1 + Cc1ccccc1
viscosity [mPa·s], 101.2 kPa
Details	x1 = 0.1024	x1 = 0.2018	x1 = 0.3008	x1 = 0.4006	x1 = 0.4997	x1 = 0.606	x1 = 0.7014	x1 = 0.7987	x1 = 0.8991
293.15 K	0.6849 ± 0.038	0.7905 ± 0.045	0.9144 ± 0.055	1.08 ± 0.067	1.279 ± 0.083	1.57 ± 0.11	1.948 ± 0.15	2.495 ± 0.21	3.305 ± 0.29
298.15 K	0.6448 ± 0.036	0.7387 ± 0.042	0.8543 ± 0.05	1.001 ± 0.06	1.174 ± 0.076	1.44 ± 0.098	1.758 ± 0.13	2.24 ± 0.18	2.96 ± 0.25
303.15 K	0.6068 ± 0.033	0.69 ± 0.039	0.7952 ± 0.046	0.9255 ± 0.055	1.083 ± 0.068	1.313 ± 0.088	1.602 ± 0.12	2.024 ± 0.16	2.665 ± 0.22
308.15 K	0.5742 ± 0.032	0.6559 ± 0.037	0.7533 ± 0.043	0.8681 ± 0.051	1.019 ± 0.063	1.222 ± 0.08	1.486 ± 0.11	1.875 ± 0.15	2.43 ± 0.19
313.15 K	0.5451 ± 0.03	0.6205 ± 0.034	0.7071 ± 0.04	0.8118 ± 0.048	0.9488 ± 0.059	1.135 ± 0.074	1.375 ± 0.099	1.718 ± 0.13	2.208 ± 0.17
318.15 K	0.5187 ± 0.028	0.5889 ± 0.032	0.6667 ± 0.037	0.76 ± 0.044	0.8866 ± 0.055	1.062 ± 0.069	1.283 ± 0.09	1.58 ± 0.12	2.012 ± 0.15

C1COCCO1 + Cc1ccccc1
101 kPa
Details	viscosity
293.15 K, x1 = 0.6506	1.045 ± 0.022 mPa·s
303.15 K, x1 = 0.0992	0.556 ± 0.006 mPa·s
303.15 K, x1 = 0.1216	0.5749 ± 0.0042 mPa·s
303.15 K, x1 = 0.122	0.573 ± 0.01 mPa·s
303.15 K, x1 = 0.1993	0.591 ± 0.006 mPa·s
303.15 K, x1 = 0.2367	0.6251 ± 0.0045 mPa·s
303.15 K, x1 = 0.237	0.622 ± 0.011 mPa·s
303.15 K, x1 = 0.2925	0.628 ± 0.006 mPa·s
303.15 K, x1 = 0.347	0.675 ± 0.012 mPa·s
303.15 K, x1 = 0.3999	0.676 ± 0.007 mPa·s
303.15 K, x1 = 0.453	0.7299 ± 0.0051 mPa·s and 0.729 ± 0.012 mPa·s
303.15 K, x1 = 0.4961	0.723 ± 0.007 mPa·s
303.15 K, x1 = 0.554	0.779 ± 0.013 mPa·s
303.15 K, x1 = 0.5541	0.781 ± 0.0054 mPa·s
303.15 K, x1 = 0.5981	0.778 ± 0.008 mPa·s
303.15 K, x1 = 0.65	0.831 ± 0.014 mPa·s
303.15 K, x1 = 0.6504	0.8368 ± 0.0057 mPa·s
303.15 K, x1 = 0.6985	0.843 ± 0.008 mPa·s
303.15 K, x1 = 0.7438	0.8912 ± 0.0061 mPa·s
303.15 K, x1 = 0.744	0.882 ± 0.015 mPa·s
303.15 K, x1 = 0.8009	0.918 ± 0.009 mPa·s
303.15 K, x1 = 0.8327	0.9416 ± 0.0063 mPa·s
303.15 K, x1 = 0.833	0.939 ± 0.016 mPa·s
303.15 K, x1 = 0.8967	0.998 ± 0.01 mPa·s
303.15 K, x1 = 0.918	0.9965 ± 0.0067 mPa·s and 0.995 ± 0.016 mPa·s
308.15 K, x1 = 0.1	0.533 ± 0.007 mPa·s
308.15 K, x1 = 0.3	0.593 ± 0.008 mPa·s
308.15 K, x1 = 0.4	0.629 ± 0.008 mPa·s
308.15 K, x1 = 0.5	0.669 ± 0.009 mPa·s
308.15 K, x1 = 0.6	0.709 ± 0.009 mPa·s
308.15 K, x1 = 0.7	0.764 ± 0.01 mPa·s
308.15 K, x1 = 0.9	0.893 ± 0.011 mPa·s

COC(=O)CC(=O)OC + Cc1ccccc1
303.15 K, 101 kPa
Details	viscosity [mPa·s]
x1 = 0.0934	0.5584 ± 0.0058
x1 = 0.1891	0.6061 ± 0.0062
x1 = 0.2852	0.6706 ± 0.0068
x1 = 0.3836	0.7507 ± 0.0075
x1 = 0.4821	0.8493 ± 0.0084
x1 = 0.5831	0.9701 ± 0.0096
x1 = 0.6852	1.122 ± 0.011
x1 = 0.7891	1.307 ± 0.013
x1 = 0.8932	1.522 ± 0.015

COc1ccccc1O + Cc1ccccc1
303.15 K, 101 kPa
Details	viscosity [mPa·s]
x2 = 0.1	3.17 ± 0.08
x2 = 0.2	2.47 ± 0.07
x2 = 0.3	1.83 ± 0.05
x2 = 0.4	1.5 ± 0.04
x2 = 0.5	1.2 ± 0.03
x2 = 0.6	0.981 ± 0.026
x2 = 0.7	0.815 ± 0.022
x2 = 0.8	0.7 ± 0.019
x2 = 0.9	0.599 ± 0.016

BrCCBr + Cc1ccccc1C
101.33 kPa
Details	viscosity [mPa·s]
298.15 K, x1 = 0.1292	0.7932 ± 0.0099
298.15 K, x1 = 0.261	0.8771 ± 0.011
298.15 K, x1 = 0.3856	0.9602 ± 0.012
298.15 K, x1 = 0.4919	1.032 ± 0.012
298.15 K, x1 = 0.585	1.098 ± 0.013
298.15 K, x1 = 0.6529	1.182 ± 0.014
298.15 K, x1 = 0.7597	1.263 ± 0.015
298.15 K, x1 = 0.8472	1.374 ± 0.016
298.15 K, x1 = 0.9267	1.487 ± 0.017
308.15 K, x1 = 0.1371	0.5822 ± 0.0073
308.15 K, x1 = 0.2566	0.6257 ± 0.0078
308.15 K, x1 = 0.3821	0.6992 ± 0.0086
308.15 K, x1 = 0.4845	0.7526 ± 0.0091
308.15 K, x1 = 0.5874	0.8292 ± 0.01
308.15 K, x1 = 0.6798	0.9216 ± 0.011
308.15 K, x1 = 0.7647	1.018 ± 0.012
308.15 K, x1 = 0.8499	1.154 ± 0.013
308.15 K, x1 = 0.9228	1.273 ± 0.015
